Read-outs that look alike come from different tables or passages of the source.
Test system: Sprague-Dawley rats
Experiment: Bone geometry and densitometry (pQCT of tibia)
Assay type: in vivo, Rattus norvegicus
Parameters: key to Dose response: Densitometry, diaphysis, Cortical area / Dose response: Densitometry, metaphysis, Trabecular area: D: significant dose response (for results, see Table 2); T: significant trend
Conditions: for CED, Cortical area of diaphysis / CED-L, Cortical area of diaphysis: M; for Emax: Rattus norvegicus
Procedure: Hind limbs were collected and frozen at −20°C. Dissected right tibias were cleaned from soft tissue and stored in Ringer solution at −20°C until analysis. The length of each bone was measured using an electronic sliding caliper to the nearest 0.01 mm (IP65, Sylvac SA, Crissier, Switzerland). […] The thresholds for defining trabecular bone were 280 and 400 mg/cm^3, while cortical bone was defined above a threshold of 710 mg/cm^3. The voxel size was 0.07 mm.
Data were also analyzed using the BMD method, which is based on dose-response modeling of the full data set using a nested family of exponential and Hill models. The analyses were done on data of males and females combined, using sex as a covariate. […] In that case, different Critical Effect Doses (CEDs) and CEDs at the lowest bound of the confidence interval (CED-L) were generated for each sex. If no difference between sexes is detected, a CED and CED-Ls for the combined data is generated. However, this was also done if the curve fits are close, and separate analyses for males and females were then performed manually. CEDs and CED-Ls were calculated at the predefined Critical Effect Size (CES) of 5% (EFSA standard) or 10%.

[1] = F, CES 5%, model E2, adipose tissue concentration based
[2] = F, CES 10%, model E2, adipose tissue concentration based
[3] = CES 5%, model E2, adipose tissue concentration based
[4] = CES 10%, model E2, adipose tissue concentration based
[5] = females, CES 5%, total dose based
[6] = males, CES 5%, total dose based
[7] = tibia, females, total dose 3 mg/kg bw
[8] = tibia, females, total dose 10 mg/kg bw
[9] = tibia, females, total dose 30 mg/kg bw
[10] = tibia, females, total dose 100 mg/kg bw
[11] = tibia, females, total dose 300 mg/kg bw
[12] = tibia, females, total dose 1000 mg/kg bw
[13] = tibia, females, total dose 1700 mg/kg bw
[14] = tibia, males, total dose 3 mg/kg bw
[15] = tibia, males, total dose 10 mg/kg bw
[16] = tibia, males, total dose 30 mg/kg bw
[17] = tibia, males, total dose 100 mg/kg bw
[18] = tibia, males, total dose 300 mg/kg bw
[19] = tibia, males, total dose 1000 mg/kg bw
[20] = tibia, males, total dose 1700 mg/kg bw

Clc1cc(Cl)c(-c2cc(Cl)c(Cl)c(Cl)c2Cl)cc1Cl [PCB 180, 2,2′,3′,4,4′,5,5′-heptachlorobiphenyl]
CED, Trabecular area of metaphysis [1]: 6230 µg/g lipid
CED-L, Trabecular area of metaphysis [1]: 3714 µg/g lipid
CED, Trabecular area of metaphysis [2]: 12200 µg/g lipid
CED-L, Trabecular area of metaphysis [2]: 7255 µg/g lipid
CED, Cortical area of diaphysis [3]: 5930 µg/g lipid
CED-L, Cortical area of diaphysis [3]: 3506 µg/g lipid
CED, Cortical area of diaphysis [4]: 12200 µg/g lipid
CED-L, Cortical area of diaphysis [4]: 7202 µg/g lipid
Emax (F, model E2, controls vs high dose according to the fitted model, read-out: Maximum response, Trabecular area of metaphysis): 9.25%
Emax (females, controls vs high dose, fitted model, read-out: Trabecular area of metaphysis, Maximum response): 8.2%
Emax (males, controls vs high dose, fitted model, read-out: Cortical area of diaphysis, Maximum response): -6.1%
Emax (model E2, controls vs high dose according to the fitted model, read-out: Maximum response, Cortical area of diaphysis): -6.19%
Trabecular area of metaphysis, CED [5]: 1040 mg/kg bw
Trabecular area of metaphysis, CED-L [5]: 602 mg/kg bw
Trabecular area of metaphysis, CED (females, adipose tissue concentration based): 6230 µg/g lipid
Trabecular area of metaphysis, Maximum response (females, controls vs high dose, fitted model): 8.30%
Cortical area of diaphysis, CED [6]: 1380 mg/kg bw
Cortical area of diaphysis, CED-L [6]: 820 mg/kg bw
Cortical area of tibial diaphysis, CED (males, adipose tissue concentration based): 5930 µg/g lipid
Densitometry, diaphysis: Cortical area [7]: 3.25 mm2
Densitometry, diaphysis: Cortical density [7]: 1315 mg/cm3
Densitometry, diaphysis: Cortical thickness [7]: 0.49 mm
Densitometry, diaphysis: Endosteal circumference [7]: 5.06 mm
Densitometry, diaphysis: Periosteal circumference [7]: 8.15 mm
Densitometry, metaphysis: Total density [7]: 570 mg/cm3
Densitometry, metaphysis: Trabecular area [7]: 5.33 mm2
Densitometry, metaphysis: Trabecular density [7]: 195 mg/cm3
Densitometry, diaphysis: Cortical area [8]: 3.22 mm2
Densitometry, diaphysis: Cortical density [8]: 1312 mg/cm3
Densitometry, diaphysis: Cortical thickness [8]: 0.49 mm
Densitometry, diaphysis: Endosteal circumference [8]: 5.06 mm
Densitometry, diaphysis: Periosteal circumference [8]: 8.12 mm
Densitometry, metaphysis: Total density [8]: 571 mg/cm3
Densitometry, metaphysis: Trabecular area [8]: 5.37 mm2
Densitometry, metaphysis: Trabecular density [8]: 199 mg/cm3
Densitometry, diaphysis: Cortical area [9]: 3.23 mm2
Densitometry, diaphysis: Cortical density [9]: 1311 mg/cm3
Densitometry, diaphysis: Cortical thickness [9]: 0.49 mm
Densitometry, diaphysis: Endosteal circumference [9]: 5.08 mm
Densitometry, diaphysis: Periosteal circumference [9]: 8.14 mm
Densitometry, metaphysis: Total density [9]: 569 mg/cm3
Densitometry, metaphysis: Trabecular area [9]: 5.52 mm2
Densitometry, metaphysis: Trabecular density [9]: 211 mg/cm3
Densitometry, diaphysis: Cortical area [10]: 3.21 mm2
Densitometry, diaphysis: Cortical density [10]: 1307 mg/cm3
Densitometry, diaphysis: Cortical thickness [10]: 0.49 mm
Densitometry, diaphysis: Endosteal circumference [10]: 4.95 mm
Densitometry, diaphysis: Periosteal circumference [10]: 8.06 mm
Densitometry, metaphysis: Total density [10]: 586 mg/cm3
Densitometry, metaphysis: Trabecular area [10]: 4.99 mm2
Densitometry, metaphysis: Trabecular density [10]: 209 mg/cm3
Densitometry, diaphysis: Cortical area [11]: 3.26 mm2
Densitometry, diaphysis: Cortical density [11]: 1310 mg/cm3
Densitometry, diaphysis: Cortical thickness [11]: 0.50 mm
Densitometry, diaphysis: Endosteal circumference [11]: 5.01 mm
Densitometry, diaphysis: Periosteal circumference [11]: 8.13 mm
Densitometry, metaphysis: Total density [11]: 581 mg/cm3
Densitometry, metaphysis: Trabecular area [11]: 5.25 mm2
Densitometry, metaphysis: Trabecular density [11]: 214 mg/cm3
Densitometry, diaphysis: Cortical area [12]: 3.23 mm2
Densitometry, diaphysis: Cortical density [12]: 1309 mg/cm3
Densitometry, diaphysis: Cortical thickness [12]: 0.49 mm
Densitometry, diaphysis: Endosteal circumference [12]: 4.97 mm
Densitometry, diaphysis: Periosteal circumference [12]: 8.08 mm
Densitometry, metaphysis: Total density [12]: 574 mg/cm3
Densitometry, metaphysis: Trabecular area [12]: 5.41 mm2
Densitometry, metaphysis: Trabecular density [12]: 209 mg/cm3
Densitometry, diaphysis: Cortical area [13]: 3.10 mm2
Densitometry, diaphysis: Cortical density [13]: 1307 mg/cm3
Densitometry, diaphysis: Cortical thickness [13]: 0.48 mm
Densitometry, diaphysis: Endosteal circumference [13]: 5.01 mm
Densitometry, diaphysis: Periosteal circumference [13]: 8.00 mm
Densitometry, metaphysis: Total density [13]: 562 mg/cm3
Densitometry, metaphysis: Trabecular area [13]: 5.84 mm2
Densitometry, metaphysis: Trabecular density [13]: 221 mg/cm3
Dose response: Densitometry, metaphysis, Trabecular area (tibia, females, total doses 0-1700 mg/kg bw): D
Densitometry, diaphysis: Cortical area [14]: 4.04 mm2
Densitometry, diaphysis: Cortical density [14]: 1321 mg/cm3
Densitometry, diaphysis: Cortical thickness [14]: 0.56 mm
Densitometry, diaphysis: Endosteal circumference [14]: 5.47 mm
Densitometry, diaphysis: Periosteal circumference [14]: 8.98 mm
Densitometry, metaphysis: Total density [14]: 493 mg/cm3
Densitometry, metaphysis: Trabecular area [14]: 8.42 mm2
Densitometry, metaphysis: Trabecular density [14]: 174 mg/cm3
Densitometry, diaphysis: Cortical area [15]: 3.95 mm2
Densitometry, diaphysis: Cortical density [15]: 1314 mg/cm3
Densitometry, diaphysis: Cortical thickness [15]: 0.54 mm
Densitometry, diaphysis: Endosteal circumference [15]: 5.55 mm
Densitometry, diaphysis: Periosteal circumference [15]: 8.97 mm
Densitometry, metaphysis: Total density [15]: 465 mg/cm3
Densitometry, metaphysis: Trabecular area [15]: 8.96 mm2
Densitometry, metaphysis: Trabecular density [15]: 139 mg/cm3
Densitometry, diaphysis: Cortical area [16]: 4.08 mm2
Densitometry, diaphysis: Cortical density [16]: 1316 mg/cm3
Densitometry, diaphysis: Cortical thickness [16]: 0.56 mm
Densitometry, diaphysis: Endosteal circumference [16]: 5.58 mm
Densitometry, diaphysis: Periosteal circumference [16]: 9.08 mm
Densitometry, metaphysis: Total density [16]: 485 mg/cm3
Densitometry, metaphysis: Trabecular area [16]: 8.63 mm2
Densitometry, metaphysis: Trabecular density [16]: 165 mg/cm3
Densitometry, diaphysis: Cortical area [17]: 4.06 mm2
Densitometry, diaphysis: Cortical density [17]: 1300 mg/cm3
Densitometry, diaphysis: Cortical thickness [17]: 0.55 mm
Densitometry, diaphysis: Endosteal circumference [17]: 5.70 mm
Densitometry, diaphysis: Periosteal circumference [17]: 9.14 mm
Densitometry, metaphysis: Total density [17]: 458 mg/cm3
Densitometry, metaphysis: Trabecular area [17]: 9.57 mm2
Densitometry, metaphysis: Trabecular density [17]: 159 mg/cm3
Densitometry, diaphysis: Cortical area [18]: 4.06 mm2
Densitometry, diaphysis: Cortical density [18]: 1313 mg/cm3
Densitometry, diaphysis: Cortical thickness [18]: 0.56 mm
Densitometry, diaphysis: Endosteal circumference [18]: 5.53 mm
Densitometry, diaphysis: Periosteal circumference [18]: 9.03 mm
Densitometry, metaphysis: Total density [18]: 474 mg/cm3
Densitometry, metaphysis: Trabecular area [18]: 8.85 mm2
Densitometry, metaphysis: Trabecular density [18]: 150 mg/cm3
Densitometry, diaphysis: Cortical area [19]: 3.88 mm2
Densitometry, diaphysis: Cortical density [19]: 1306 mg/cm3
Densitometry, diaphysis: Cortical thickness [19]: 0.54 mm
Densitometry, diaphysis: Endosteal circumference [19]: 5.51 mm
Densitometry, diaphysis: Periosteal circumference [19]: 8.90 mm
Densitometry, metaphysis: Total density [19]: 468 mg/cm3
Densitometry, metaphysis: Trabecular area [19]: 8.69 mm2
Densitometry, metaphysis: Trabecular density [19]: 154 mg/cm3
Densitometry, diaphysis: Cortical area [20]: 3.80 mm2
Densitometry, diaphysis: Cortical density [20]: 1315 mg/cm3
Densitometry, diaphysis: Cortical thickness [20]: 0.53 mm
Densitometry, diaphysis: Endosteal circumference [20]: 5.54 mm
Densitometry, diaphysis: Periosteal circumference [20]: 8.86 mm
Densitometry, metaphysis: Total density [20]: 483 mg/cm3
Densitometry, metaphysis: Trabecular area [20]: 8.64 mm2
Densitometry, metaphysis: Trabecular density [20]: 164 mg/cm3
Dose response: Densitometry, diaphysis, Cortical area (tibia, males, total doses 0-1700 mg/kg bw): D

Reference: PMC4138103 (PLoS ONE, 2014)
